# Laboratory results reported in ChEMBL document CHEMBL2074262, “Molecular identification and characterization of novel members of the human organic anion transporter (OATP) family” (Biochem Biophys Res Commun, 2000).
# Experiments:
# Assay type in all cases: functional, cell-based
# [1] = biological target: T1, Solute carrier organic anion transporter family member 3A1 (Homo sapiens, UniProt Q9UIG8); test: TP_TRANSPORTER: uptake in OATP-D-expressing HEK293 cells
# T1 sequence (Q9UIG8 whole entry): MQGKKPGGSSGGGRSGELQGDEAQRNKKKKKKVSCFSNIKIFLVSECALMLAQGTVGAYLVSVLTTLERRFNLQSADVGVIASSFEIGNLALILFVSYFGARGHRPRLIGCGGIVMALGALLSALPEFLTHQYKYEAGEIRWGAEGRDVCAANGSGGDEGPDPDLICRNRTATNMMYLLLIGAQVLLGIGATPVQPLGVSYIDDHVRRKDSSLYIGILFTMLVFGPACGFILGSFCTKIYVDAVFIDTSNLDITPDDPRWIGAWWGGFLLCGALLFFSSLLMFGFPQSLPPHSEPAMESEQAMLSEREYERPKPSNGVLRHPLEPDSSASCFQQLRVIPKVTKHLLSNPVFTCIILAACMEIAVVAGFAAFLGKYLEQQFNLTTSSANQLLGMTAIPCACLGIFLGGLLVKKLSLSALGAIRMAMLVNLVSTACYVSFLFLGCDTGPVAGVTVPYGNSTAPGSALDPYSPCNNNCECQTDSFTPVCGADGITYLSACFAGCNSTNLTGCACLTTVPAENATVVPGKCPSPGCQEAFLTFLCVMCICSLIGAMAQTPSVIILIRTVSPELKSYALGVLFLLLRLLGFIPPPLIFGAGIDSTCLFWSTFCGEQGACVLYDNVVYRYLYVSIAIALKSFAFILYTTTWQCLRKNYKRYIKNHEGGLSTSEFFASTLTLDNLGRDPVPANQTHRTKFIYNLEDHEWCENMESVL
# [2] = biological target: T2, Solute carrier organic anion transporter family member 4A1 (Homo sapiens, UniProt Q96BD0); test: TP_TRANSPORTER: uptake in OATP-E-expressing HEK293 cells
# T2 sequence (Q96BD0 whole entry): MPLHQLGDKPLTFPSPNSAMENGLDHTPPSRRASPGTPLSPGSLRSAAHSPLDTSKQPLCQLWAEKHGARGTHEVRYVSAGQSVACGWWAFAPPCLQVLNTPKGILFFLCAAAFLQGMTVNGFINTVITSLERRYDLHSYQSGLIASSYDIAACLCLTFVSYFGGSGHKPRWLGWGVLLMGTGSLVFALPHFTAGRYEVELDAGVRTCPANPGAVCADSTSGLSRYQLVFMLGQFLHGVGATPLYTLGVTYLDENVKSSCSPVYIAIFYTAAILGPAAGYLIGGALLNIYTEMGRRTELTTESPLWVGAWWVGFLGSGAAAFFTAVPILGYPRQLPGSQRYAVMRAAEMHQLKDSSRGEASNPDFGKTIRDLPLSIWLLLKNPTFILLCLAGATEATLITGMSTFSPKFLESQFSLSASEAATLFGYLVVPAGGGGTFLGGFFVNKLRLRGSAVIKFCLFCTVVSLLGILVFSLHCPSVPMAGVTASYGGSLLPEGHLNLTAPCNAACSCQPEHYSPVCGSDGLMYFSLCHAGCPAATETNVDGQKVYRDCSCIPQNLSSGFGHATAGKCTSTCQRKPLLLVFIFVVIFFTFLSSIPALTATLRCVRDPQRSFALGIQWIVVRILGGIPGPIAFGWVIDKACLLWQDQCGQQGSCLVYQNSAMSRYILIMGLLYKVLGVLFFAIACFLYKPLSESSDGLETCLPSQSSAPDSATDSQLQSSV
# [3] = biological target: T3, Solute carrier organic anion transporter family member 1B1 (Homo sapiens, UniProt Q9Y6L6); test: TP_TRANSPORTER: uptake in OATP-C-expressing HEK293 cells
# T3 sequence (Q9Y6L6 whole entry): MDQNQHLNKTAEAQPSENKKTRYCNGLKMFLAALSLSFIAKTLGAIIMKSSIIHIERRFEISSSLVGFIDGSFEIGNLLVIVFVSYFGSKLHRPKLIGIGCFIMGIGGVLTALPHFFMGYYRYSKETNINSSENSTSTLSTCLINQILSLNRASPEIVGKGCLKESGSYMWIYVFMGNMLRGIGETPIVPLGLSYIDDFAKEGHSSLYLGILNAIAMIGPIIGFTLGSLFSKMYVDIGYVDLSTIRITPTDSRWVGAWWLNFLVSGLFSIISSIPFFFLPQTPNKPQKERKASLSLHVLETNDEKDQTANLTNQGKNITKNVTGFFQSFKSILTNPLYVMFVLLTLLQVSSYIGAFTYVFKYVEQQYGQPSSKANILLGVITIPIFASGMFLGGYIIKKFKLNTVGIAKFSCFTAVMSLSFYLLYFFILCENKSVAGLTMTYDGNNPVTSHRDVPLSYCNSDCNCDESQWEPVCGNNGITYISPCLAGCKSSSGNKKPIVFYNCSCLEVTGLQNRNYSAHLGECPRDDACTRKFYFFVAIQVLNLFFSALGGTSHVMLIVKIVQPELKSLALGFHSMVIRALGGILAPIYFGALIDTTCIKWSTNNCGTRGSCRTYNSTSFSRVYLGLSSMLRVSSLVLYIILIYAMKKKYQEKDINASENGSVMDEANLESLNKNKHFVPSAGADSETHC
# [4] = biological target: T4, Solute carrier organic anion transporter family member 2B1 (Homo sapiens, UniProt O94956); test: TP_TRANSPORTER: uptake in OATP-B-expressing HEK293 cells
# T4 sequence (O94956 whole entry): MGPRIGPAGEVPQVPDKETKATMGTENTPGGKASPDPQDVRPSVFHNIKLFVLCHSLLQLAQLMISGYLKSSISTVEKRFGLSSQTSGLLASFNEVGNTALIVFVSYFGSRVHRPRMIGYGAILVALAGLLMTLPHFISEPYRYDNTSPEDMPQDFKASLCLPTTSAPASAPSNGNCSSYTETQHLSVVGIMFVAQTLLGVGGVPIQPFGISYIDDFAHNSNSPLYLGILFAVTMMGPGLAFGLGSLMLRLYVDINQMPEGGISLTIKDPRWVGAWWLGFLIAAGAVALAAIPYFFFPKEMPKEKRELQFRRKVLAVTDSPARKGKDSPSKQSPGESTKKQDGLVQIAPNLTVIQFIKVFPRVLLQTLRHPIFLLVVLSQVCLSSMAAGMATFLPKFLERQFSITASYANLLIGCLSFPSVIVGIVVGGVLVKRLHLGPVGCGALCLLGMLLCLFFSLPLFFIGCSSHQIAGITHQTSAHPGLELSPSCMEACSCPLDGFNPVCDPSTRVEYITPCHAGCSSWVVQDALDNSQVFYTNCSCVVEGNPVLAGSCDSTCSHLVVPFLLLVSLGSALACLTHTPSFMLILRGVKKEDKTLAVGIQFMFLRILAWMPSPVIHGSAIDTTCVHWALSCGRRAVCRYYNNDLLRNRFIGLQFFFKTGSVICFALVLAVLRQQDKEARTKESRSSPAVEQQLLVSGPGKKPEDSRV
structure (smiles),measurement,setting,value
CCCCC[C@H](O)/C=C/[C@H]1[C@H](O)CC(=O)[C@@H]1C/C=C\CCCC(=O)O [DINOPROSTONE],Activity,[1],substrate [+]
same,Activity,[2],substrate [+]
same,Activity,[3],substrate [+]
same,Activity,[4],substrate [+]
C[C@]12CC[C@@H]3c4ccc(O)cc4CC[C@H]3[C@@H]1CC[C@@H]2O[C@@H]1O[C@H](C(=O)O)[C@@H](O)[C@H](O)[C@H]1O [ESTRADIOL 17B GLUCURONIDE],Activity,[2],substrate [+]
C[C@]12CC[C@@H]3c4ccc(OS(=O)(=O)O)cc4CC[C@H]3[C@@H]1CCC2=O [ESTRONE SULFURIC ACID],Activity,[1],substrate [+]
same,Activity,[2],substrate [+]
CC1(C)S[C@@H]2[C@H](NC(=O)Cc3ccccc3)C(=O)N2[C@H]1C(=O)O [PENICILLIN G],Activity,[1],substrate [+]
same,Activity,[2],substrate [+]
same,Activity,[3],substrate [+]
same,Activity,[4],substrate [+]
